One compound from patent EP0268663B1, “PHOSPHOPEPTIDES” (THE UNIVERSITY OF MELBOURNE, priority 1986, dated 1995) can be followed below.

Square brackets hold non-standard residues; d marks the D form. Peptide text beside a SMILES is read from it. pS = N[C@@H](COP(=O)(O)O)C(=O)O

Series [1] is described as follows: Sequestration of calcium phosphate by the peptide. Format: physicochemical. The note with it: 10mg/ml solution at pH 7.0; metastable supersaturated solution. As to the method: The active peptides can sequester calcium phosphate and other salts of divalent metal ions. One mole of T1 binds 16 mole of CaHPO₄ such that a 10mg/ml solution of T1 at pH 7.0 can solubilize 60mM CaHPO₄ producing a metastable supersaturated solution with respect to calcium phosphate species. With chloride as the counter ion one mole of T1 binds only 5 mole of Ca⁺⁺ binding only to serine phosphates. One mole of T1 with about 16 mole of CaHPO₄ bound (M.W. 4883) will henceforth be referred to as calcium phosphate T1.

Series [2] can be described thus: Intra-Oral Caries Test. The note with it: plaque exposed twice a day to the peptide T1 solution (1.8% w/v calcium phosphate T1). Format: in vivo. As to the method:
The anticariogenicity of phosphopeptide T1 was determined using a modification of the intra-oral caries test of Koulourides and Ostrom (Caries Res. 10:442-482, 1976). Enamel slabs were inset in a removable intra-oral appliance to simulate an approximal area. This was done on both sides of the removable appliance (left and right). The appliance was worn to allow plaque accumulation in the simulated approximal areas. Eight times a day the appliance was removed and placed in a solution at 37°C. The solution was 2% w/v sucrose, 2% w/v glucose, 140 mM KCl, 20mM NaCl at pH 7.0. Twice a day the right side enamel slabs received exposure to a solution containing 1.8% w/v calcium phosphate T1 in 140 mM KCl, 20 mM NaCl at pH 7.0, while the left side received only the salt solution. At the completion of the experiment the enamel slabs were removed, sectioned and subjected to microradiography and microhardnass testing. […] The results were confirmed by microhardness analysis. Plaque was also taken from both sides of the appliance and analysed for calcium phosphate, serine phosphate and peptide T1 using a competitive, quantitative, enzyme-linked immunosorbent assay (ELISA) utilising monoclonal antipeptide T1 antibodies.

Regarding `CC[C@H](C)[C@H](NC(=O)[C@H](COP(=O)(O)O)NC(=O)[C@H](CCC(=O)O)NC(=O)[C@H](C)NC(=O)[C@H](CCC(=O)O)NC(=O)[C@H](CCSC)NC(=O)[C@@H](N)CCC(=O)O)C(=O)N[C@@H](COP(=O)(O)O)C(=O)N[C@@H](COP(=O)(O)O)C(=O)N[C@@H](COP(=O)(O)O)C(=O)N[C@@H](CCC(=O)O)C(=O)N[C@@H](CCC(=O)O)C(=O)N[C@H](C(=O)N[C@H](C(=O)N1CCC[C@H]1C(=O)N[C@@H](CC(N)=O)C(=O)N[C@@H](COP(=O)(O)O)C(=O)N[C@H](C(=O)N[C@@H](CCC(=O)O)C(=O)N[C@@H](CCC(N)=O)C(=O)N[C@@H](CCCCN)C(=O)O)C(C)C)C(C)C)[C@@H](C)CC` [Phosphopeptide T1] (H-EMEAE[pS]I[pS][pS][pS]EEIVPN[pS]VEQK-OH), the CaHPO₄ solubilized in series [1] is reported as 60 mM. Further, the “level of peptide in plaque (ELISA)” value in series [2] was “at least 0.4 % w/wet wt of plaque”.
